Source: paper PMC5216056 (Nature Communications, 2017)
Where “and” joins values, the source holds several entries; their conditions need not be identical. Equal values may be shown once.

Columns and labels:
[1] = tested on: AEA cellular uptake in U937 cells; assay: cells; type: cell-based, human; conditions: for AEA reuptake Efficacy (% inhibition) U937 cells: from dose-response; for IC50: read-out: AEA reuptake IC50 (95% CI) U937 cells
[2] = tested on: BZD (central); type: binding; conditions: 10 µM
[3] = 1 μM
[4] = molecular target: T1, hCB1R (Homo sapiens, UniProt P21554); assay: cell-based
T1 construct: host or cells: CHO
T1 sequence (P21554 whole entry): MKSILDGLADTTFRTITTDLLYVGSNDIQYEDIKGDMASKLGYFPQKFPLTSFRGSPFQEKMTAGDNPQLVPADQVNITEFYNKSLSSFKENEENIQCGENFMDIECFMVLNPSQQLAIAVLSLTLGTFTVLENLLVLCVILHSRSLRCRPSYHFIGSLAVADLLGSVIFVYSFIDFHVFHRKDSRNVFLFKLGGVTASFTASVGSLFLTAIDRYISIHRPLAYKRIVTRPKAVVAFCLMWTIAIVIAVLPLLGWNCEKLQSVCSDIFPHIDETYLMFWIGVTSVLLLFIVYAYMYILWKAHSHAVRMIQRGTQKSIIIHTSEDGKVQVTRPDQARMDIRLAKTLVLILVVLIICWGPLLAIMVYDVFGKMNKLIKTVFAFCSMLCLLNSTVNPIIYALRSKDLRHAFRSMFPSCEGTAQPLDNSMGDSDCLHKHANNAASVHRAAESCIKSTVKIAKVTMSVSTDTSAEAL

[5] = molecular target: T2, MT3 (ML2) (Mesocricetus auratus, UniProt A0ABM2YAB8); assay: CEREP panel; type: binding; conditions: 10 µM
T2 construct: CEREP (contract assay)
T2 sequence (A0ABM2YAB8 1-231): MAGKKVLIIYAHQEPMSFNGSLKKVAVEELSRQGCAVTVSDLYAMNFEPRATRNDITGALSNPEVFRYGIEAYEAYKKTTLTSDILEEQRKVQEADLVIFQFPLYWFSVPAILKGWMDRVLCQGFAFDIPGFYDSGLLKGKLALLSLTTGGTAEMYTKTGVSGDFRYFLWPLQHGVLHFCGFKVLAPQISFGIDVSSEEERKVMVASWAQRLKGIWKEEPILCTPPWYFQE

[6] = molecular target: T3, kappa (KOP) (Rattus norvegicus, UniProt P34975); assay: CEREP panel; type: binding; conditions: 10 µM
T3 construct: CEREP (contract assay)
T3 sequence (P34975 whole entry): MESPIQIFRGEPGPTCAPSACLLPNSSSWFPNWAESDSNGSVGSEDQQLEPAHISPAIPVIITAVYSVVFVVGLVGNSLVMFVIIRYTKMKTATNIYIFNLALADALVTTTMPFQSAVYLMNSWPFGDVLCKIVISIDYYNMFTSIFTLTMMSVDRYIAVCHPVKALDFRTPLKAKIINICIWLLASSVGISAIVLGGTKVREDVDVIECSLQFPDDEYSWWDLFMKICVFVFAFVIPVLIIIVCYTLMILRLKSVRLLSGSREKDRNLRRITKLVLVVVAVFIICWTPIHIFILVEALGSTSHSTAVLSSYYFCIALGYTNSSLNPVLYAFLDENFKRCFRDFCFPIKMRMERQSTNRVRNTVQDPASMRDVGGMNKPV

[7] = molecular target: T1, hCB1R; assay: biochemical; type: biochemical
[8] = molecular target: T4, beta 1 (h) (Homo sapiens, UniProt P08588); assay: biochemical; type: binding; conditions: 10 µM
T4 construct: CEREP
T4 sequence (P08588 whole entry): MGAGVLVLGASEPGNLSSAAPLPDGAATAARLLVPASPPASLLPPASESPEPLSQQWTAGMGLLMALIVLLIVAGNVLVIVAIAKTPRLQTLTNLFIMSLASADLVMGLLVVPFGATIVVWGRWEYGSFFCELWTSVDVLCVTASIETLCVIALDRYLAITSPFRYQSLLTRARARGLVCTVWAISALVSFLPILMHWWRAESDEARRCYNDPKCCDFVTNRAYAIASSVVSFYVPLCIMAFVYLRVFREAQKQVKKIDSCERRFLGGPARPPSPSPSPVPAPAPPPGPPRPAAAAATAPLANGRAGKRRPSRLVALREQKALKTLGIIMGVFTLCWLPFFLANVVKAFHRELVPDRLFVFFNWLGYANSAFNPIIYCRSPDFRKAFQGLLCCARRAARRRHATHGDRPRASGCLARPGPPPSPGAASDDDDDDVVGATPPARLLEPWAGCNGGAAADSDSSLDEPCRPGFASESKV

[9] = molecular target: T5, Rat recombinant TRPA1 (Rattus norvegicus, UniProt Q6RI86); assay: cell-based; type: cell-based; conditions: for EC50: read-out: TRPA1 Potency EC50; for IC50: vs AITC 100μM, 5 min pre-incubation, read-out: TRPA1 IC50 for antagonism or desensitization
T5 construct: expressed in transfected cells
T5 sequence (Q6RI86 whole entry): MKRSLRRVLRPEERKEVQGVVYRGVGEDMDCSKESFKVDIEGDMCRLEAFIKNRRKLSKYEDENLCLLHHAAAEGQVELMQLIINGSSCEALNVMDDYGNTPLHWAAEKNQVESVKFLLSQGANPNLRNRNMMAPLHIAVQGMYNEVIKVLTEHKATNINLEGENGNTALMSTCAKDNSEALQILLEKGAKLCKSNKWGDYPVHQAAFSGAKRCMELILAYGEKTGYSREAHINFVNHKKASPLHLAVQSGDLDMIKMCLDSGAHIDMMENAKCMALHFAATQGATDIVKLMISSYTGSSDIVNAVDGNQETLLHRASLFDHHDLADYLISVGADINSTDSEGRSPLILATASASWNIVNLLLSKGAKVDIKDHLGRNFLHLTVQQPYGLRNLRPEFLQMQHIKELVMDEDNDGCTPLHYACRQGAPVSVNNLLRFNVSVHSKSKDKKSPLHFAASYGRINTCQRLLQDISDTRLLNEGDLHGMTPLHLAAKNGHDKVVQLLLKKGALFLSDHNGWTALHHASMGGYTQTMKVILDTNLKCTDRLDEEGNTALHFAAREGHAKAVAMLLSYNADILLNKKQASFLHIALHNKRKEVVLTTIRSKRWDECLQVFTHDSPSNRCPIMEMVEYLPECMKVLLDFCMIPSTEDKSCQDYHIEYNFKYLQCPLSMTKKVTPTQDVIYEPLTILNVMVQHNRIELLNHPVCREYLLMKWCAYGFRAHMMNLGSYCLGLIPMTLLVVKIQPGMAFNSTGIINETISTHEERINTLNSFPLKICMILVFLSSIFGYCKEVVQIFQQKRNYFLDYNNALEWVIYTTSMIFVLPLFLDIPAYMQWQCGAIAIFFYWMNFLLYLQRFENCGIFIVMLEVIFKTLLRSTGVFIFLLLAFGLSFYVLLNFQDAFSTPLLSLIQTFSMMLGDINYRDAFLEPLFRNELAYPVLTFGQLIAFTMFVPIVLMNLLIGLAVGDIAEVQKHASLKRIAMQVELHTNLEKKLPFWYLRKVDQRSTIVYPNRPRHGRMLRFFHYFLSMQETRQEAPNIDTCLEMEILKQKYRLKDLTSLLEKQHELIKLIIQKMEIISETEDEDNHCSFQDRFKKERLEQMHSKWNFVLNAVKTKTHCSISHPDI

[10] = molecular target: T1, hCB1R; assay: cell-based; type: cell-based
[11] = molecular target: T6, Rat recombinant TRPV2 (Rattus norvegicus, UniProt Q9WUD2); assay: cell-based; type: cell-based; conditions: for IC50: vs LPC 3μM, read-out: TRPV2 IC50 for antagonism or desensitization; for EC50: read-out: TRPV2 Potency EC50
T6 construct: expressed in transfected cells; host or cells: HEK293 (plasmid a gift from HB Bradshaw, Indiana University)
T6 sequence (Q9WUD2 1-761): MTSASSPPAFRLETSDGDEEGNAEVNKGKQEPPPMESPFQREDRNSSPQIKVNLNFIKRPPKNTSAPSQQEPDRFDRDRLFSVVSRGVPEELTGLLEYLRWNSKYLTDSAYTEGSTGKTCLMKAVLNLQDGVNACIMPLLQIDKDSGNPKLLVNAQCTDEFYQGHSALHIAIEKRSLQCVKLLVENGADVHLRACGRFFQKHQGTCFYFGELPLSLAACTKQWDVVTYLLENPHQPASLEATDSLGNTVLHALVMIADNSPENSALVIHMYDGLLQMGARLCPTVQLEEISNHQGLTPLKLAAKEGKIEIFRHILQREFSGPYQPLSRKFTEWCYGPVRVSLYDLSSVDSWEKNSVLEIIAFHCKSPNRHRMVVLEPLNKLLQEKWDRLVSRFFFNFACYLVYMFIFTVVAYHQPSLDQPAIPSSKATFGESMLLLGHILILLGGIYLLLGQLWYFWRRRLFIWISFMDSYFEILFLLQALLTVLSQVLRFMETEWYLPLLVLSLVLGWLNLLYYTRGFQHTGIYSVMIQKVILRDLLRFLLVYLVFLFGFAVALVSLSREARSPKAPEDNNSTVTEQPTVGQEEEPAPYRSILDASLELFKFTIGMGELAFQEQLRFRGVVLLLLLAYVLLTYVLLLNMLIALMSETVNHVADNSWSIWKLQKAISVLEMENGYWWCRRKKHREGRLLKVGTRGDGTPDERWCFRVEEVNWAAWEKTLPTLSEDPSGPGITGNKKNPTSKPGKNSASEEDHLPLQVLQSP

[12] = molecular target: T7, Rat recombinant TRPV3 (Rattus norvegicus, UniProt Q4QYD9); assay: cell-based; type: cell-based; conditions: for IC50: vs thymol 100μM, read-out: TRPV3 IC50 for antagonism or desensitization; for EC50: read-out: TRPV3 Potency EC50
T7 construct: expressed in transfected cells; host or cells: HEK293 (TRPV3-HEK-293, gift from HB Bradshaw, Indiana University)
T7 sequence (Q4QYD9 1-791): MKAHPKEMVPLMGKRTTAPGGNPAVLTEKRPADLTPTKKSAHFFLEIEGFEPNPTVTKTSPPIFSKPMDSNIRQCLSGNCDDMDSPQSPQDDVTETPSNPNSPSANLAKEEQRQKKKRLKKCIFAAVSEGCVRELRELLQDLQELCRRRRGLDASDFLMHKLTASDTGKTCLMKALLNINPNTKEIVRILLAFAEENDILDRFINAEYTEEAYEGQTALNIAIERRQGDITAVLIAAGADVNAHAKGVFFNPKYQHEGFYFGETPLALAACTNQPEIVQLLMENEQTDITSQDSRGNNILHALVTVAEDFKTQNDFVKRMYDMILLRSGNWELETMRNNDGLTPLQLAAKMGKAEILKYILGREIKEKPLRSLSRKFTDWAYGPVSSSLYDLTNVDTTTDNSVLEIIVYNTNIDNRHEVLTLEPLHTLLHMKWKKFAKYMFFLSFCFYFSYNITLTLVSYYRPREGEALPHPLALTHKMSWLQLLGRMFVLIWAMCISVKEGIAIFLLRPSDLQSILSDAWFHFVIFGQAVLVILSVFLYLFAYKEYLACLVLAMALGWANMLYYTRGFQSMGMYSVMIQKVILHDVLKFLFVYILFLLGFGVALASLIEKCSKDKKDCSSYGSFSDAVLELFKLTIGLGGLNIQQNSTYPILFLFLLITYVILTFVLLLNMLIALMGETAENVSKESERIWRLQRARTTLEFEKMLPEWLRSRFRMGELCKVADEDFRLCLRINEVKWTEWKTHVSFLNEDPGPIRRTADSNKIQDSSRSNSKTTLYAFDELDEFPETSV

[13] = 1 μM; remark: listed apart in the source
[14] = tested on: AR (h); assay: CEREP panel; type: binding, human; conditions: 10 µM
[15] = molecular target: T1, hCB1R; assay: cell-based; type: cell-based; remark: listed apart in the source

| SMILES | AEA reuptake Efficacy (% inhibition) U937 cells [1] [%] | IC50 [1] [µM] | % inhibition BZD (central) [2] [%] | CL microsomes human [3] [µL/min/mg protein] | Emax ± SEM cAMP hCB1R [4] | pEC50 ± SEM cAMP hCB1R [4] | % inhibition MT3 (ML2) [5] [%] | % inhibition kappa (KOP) [6] [%] | pEC50 ± SEM GTPγS hCB1R [7] | % inhibition beta 1 (h) [8] [%] | TRPA1 Efficacy (%AITC 100μM) [9] | EC50 [9] [nM] | IC50 [9] [µM] | Emax ± SEM β-AR recruitment hCB1R [10] | TRPV2 Efficacy (% ionomycin 4μM) [11] [%] | IC50 [11] [µM] | TRPV3 Efficacy (% ionomycin 4μM) [12] [%] | IC50 [12] [µM] | CL hepatocytes human [13] [µL/min/mio cells] | % inhibition AR (h) [14] [%] | also measured |
| --- | --- | --- | --- | --- | --- | --- | --- | --- | --- | --- | --- | --- | --- | --- | --- | --- | --- | --- | --- | --- | --- |
| Cc1ccc2c(c1)Cc1c(C(=O)NN3CCCCC3)nn(-c3ccc(Cl)cc3Cl)c1-2 [Gp-1a] | 64 | 1.26 | -10 | 13 | 19 ± 5 | < 5 | 33 | 99 | < 5 | 30 | 83.6% and 84 ± 1% | 2100 | 10.4 | -83 ± 7 | < 10 | 11.9 | < 10 | 22.6 | 32 | -8 | pEC50 ± SEM β-AR recruitment hCB1R [10]: < 5; pEC50 ± SEM GIRK hCB1R [15]: 5.26 ± 0.1 |
| CCCn1c(C)c(C(=O)c2cccc3ccccc23)c2ccccc21 [JWH015] |  |  | -57 | 41 |  |  | 49 | 53 |  | 7 |  |  |  |  |  |  |  |  | 16 | 0 |  |
| CN1CCCC[C@H]1Cn1cc(C(=O)c2cc([N+](=O)[O-])ccc2I)c2ccccc21 [(S)-AM1241] | 97 | 3.7 | -1 | 152 | 16 ± 2 | < 5 | 49 | 87 | < 5 | 14 | 47.5% | 5800 | 40.9 | 2 ± 1 | 11.6 | 20.6 | 16.2 | > 50 | 37 | 1 | pEC50 ± SEM β-AR recruitment hCB1R [10]: < 5; EC50 [11]: 5 µM; EC50 [12]: 9 µM; pEC50 ± SEM GIRK hCB1R [15]: < 5; Emax ± SEM GIRK hCB1R ([15]; normalized to CP55940): 19 ± 3% |
| Cc1c(C(=O)c2cccc3ccccc23)c2cccc3c2n1[C@H](CN1CCOCC1)CO3 [WIN55212-2] | 52 | 4.65 | 4 | 194 |  |  | 69 | 79 |  | 6 | 72.3% and 72 ± 1% | 2300 | 6.4 ± 0.6 |  | 17.0 | 62 | 22.9 | > 100 | 42 | 8 | EC50 [11]: 14.8 µM; EC50 [12]: 6.5 µM |
| COc1ccc(C(=O)c2c(C)n(CCN3CCOCC3)c3cc(I)ccc23)cc1 [AM630] |  | > 10 | -12 | 82 |  |  |  | 57 |  | 9 | 118.0% and 118±2% | 1900 | 3.7 ± 0.5 |  | < 10 | 35.6 | < 10 | > 100 | 16 | -7 | AEA reuptake % inhibition, effect at 10 µM, U937 cells ([1]; 10 µM (values marked *)): 23% |
